Source: paper PMC11396129, “Oxindole–benzothiazole hybrids as CDK2 inhibitors and anticancer agents: design, synthesis and biological evaluation” (BMC Chemistry, 2024)

Experiments:
Format in all cases: cell-based, human
K-562 = assay: NCI 60 panel growth inhibition (SRB), leukemia; conditions: K-562, 10 μM
In short: (§1)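 Growth inhibition measured by SRB across a five-dose range; TGI defined as the concentration where test absorbance equals time-zero absorbance. Out-of-range effects expressed as above or below the highest or lowest concentration tested.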

MOLT-4 = assay: NCI 60 panel growth inhibition (SRB), leukemia; conditions: MOLT-4, 10 μM
In short: as §1

SR = assay: NCI 60 panel growth inhibition (SRB), leukemia; conditions: 10 μM
In short: as §1

COLO 205 = assay: NCI 60 panel growth inhibition (SRB), colon cancer; conditions: COLO 205, 10 μM
Experimental: (§2) Screening of cytotoxic activity against a panel of sixty human tumor cell lines The selected compounds by NCI were evaluated for their anticancer activity in a two- stage process. […] Then, the output from the single dose screen is reported as a mean graph. […] Assay protocol. […] For a typical screening experiment, cells are inoculated into 96 well microtiter plates in 100 µL at plating densities ranging from 5000 to 40,000 cells/well depending on the doubling time of individual cell lines. […] After 24 h, two plates of each cell line are fixed in situ with TCA, to represent a measurement of the cell population for each cell line at the time of drug addition (Tz). The experimental drugs are solubilized in dimethyl sulfoxide at 400-fold the desired final maximum test concentration and stored frozen prior to use. At the time of drug addition, an aliquot of frozen concentrate is thawed and diluted to twice the desired final maximum test concentration with complete medium containing 50 µg/mL gentamicin. Additional four, 10-fold or ½ log serial dilutions are made to provide a total of five drug concentrations plus control. […] For adherent cells, the assay is terminated by the addition of cold TCA. […] The supernatant is discarded, and the plates are washed five times with tap water and air dried. […] Using the seven absorbance measurements [time zero, (Tz), control growth, (C), and test growth in the presence of drug at the five concentration levels (Ti)], the percentage growth is calculated at each of the drug concentrations levels. Percentage growth inhibition is calculated as: [(Ti Tz)/(C–Tz)] x 100 for concentrations for which Ti>/=Tz and [(Ti-Tz)/Tz] x 100 for concentrations for which Ti < Tz. Three dose response parameters are calculated for each experimental agent. […] The drug concentration resulting in total growth inhibition (TGI) is calculated from Ti = Tz. […] Values are calculated for each of these three parameters if the level of activity is reached; however, if the effect is not reached or is exceeded, the value for that parameter is expressed as greater or less than the maximum or minimum concentration tested.

HCC-2998 = assay: NCI 60 panel growth inhibition (SRB), colon cancer; conditions: HCC-2998, 10 μM
Experimental: as §2

HCT-116 = assay: NCI 60 panel growth inhibition (SRB), colon cancer; conditions: HCT-116, 10 μM
Experimental: as §2

HCT-15 = assay: NCI 60 panel growth inhibition (SRB), colon cancer; conditions: HCT-15, 10 μM
Experimental: as §2

KM12 = assay: NCI 60 panel growth inhibition (SRB), colon cancer; conditions: KM12, 10 μM
Experimental: as §2

SW-620 = assay: NCI 60 panel growth inhibition (SRB), colon cancer; conditions: SW-620, 10 μM
Experimental: as §2

SF-268 = assay: NCI 60 panel growth inhibition (SRB), CNS cancer; conditions: SF-268, 10 μM
Experimental: as §2

SF-295 = assay: NCI 60 panel growth inhibition (SRB), CNS cancer; conditions: SF-295, 10 μM
Experimental: as §2

SF-539 = assay: NCI 60 panel growth inhibition (SRB), CNS cancer; conditions: SF-539, 10 μM
Experimental: as §2

SNB-19 = assay: NCI 60 panel growth inhibition (SRB), CNS cancer; conditions: SNB-19, 10 μM
Experimental: as §2

SNB-75 = assay: NCI 60 panel growth inhibition (SRB), CNS cancer; conditions: SNB-75, 10 μM
Experimental: as §2

U251 = assay: NCI 60 panel growth inhibition (SRB), CNS cancer; conditions: U251, 10 μM
Experimental: as §2

LOX IMVI = assay: NCI 60 panel growth inhibition (SRB), melanoma; conditions: 10 μM
Experimental: as §2

M14 = assay: NCI 60 panel growth inhibition (SRB), melanoma; conditions: M14, 10 μM
Experimental: as §2

MALME-3M = assay: NCI 60 panel growth inhibition (SRB), melanoma; conditions: 10 μM
Experimental: as §2

MDA-MB-435 = assay: NCI 60 panel growth inhibition (SRB), melanoma; conditions: MDA-MB-435, 10 μM
Experimental: as §2

SK-MEL-28 = assay: NCI 60 panel growth inhibition (SRB), melanoma; conditions: SK-MEL-28, 10 μM
Experimental: as §2

SK-MEL-5 = assay: NCI 60 panel growth inhibition (SRB), melanoma; conditions: SK-MEL-5, 10 μM
Experimental: as §2

UACC-257 = assay: NCI 60 panel growth inhibition (SRB), melanoma; conditions: UACC-257, 10 μM
Experimental: as §2

UACC-62 = assay: NCI 60 panel growth inhibition (SRB), melanoma; conditions: UACC-62, 10 μM
Experimental: as §2

DU-145 = assay: NCI 60 panel growth inhibition (SRB), prostate cancer; conditions: DU-145, 10 μM
Experimental: as §2

PC-3 = assay: as above; conditions: PC-3, 10 μM
Experimental: as §2

## COc1cccc(-c2nc3ccccc3s2)c1OCC(=O)NN=C1C(=O)Nc2ccc(C)cc21 [Compound 9h, 2-(2-(Benzo[d]thiazol-2-yl)-6-methoxyphenoxy)-N′-(5-methyl-2-oxoindolin-3-ylidene)acetohydrazide]
K-562
  GI%: 26.17%
MOLT-4
  GI%: 43.65%
SR
  GI%: – (GI% < 5%)
COLO 205
  GI%: 7.03%
HCC-2998
  GI%: – (GI% < 5%)
HCT-116
  GI%: 22.91%
HCT-15
  GI%: 5.56%
KM12
  GI%: 8.90%
SW-620
  GI%: – (GI% < 5%)
SF-268
  GI%: – (GI% < 5%)
SF-295
  GI%: 19.06%
SF-539
  GI%: 9.04%
SNB-19
  GI%: 8.33%
SNB-75
  GI%: – (GI% < 5%)
U251
  GI%: 5.89%
LOX IMVI
  GI%: – (GI% < 5%)
M14
  GI%: 9.67%
MALME-3M
  GI%: 16.42%
MDA-MB-435
  GI%: – (GI% < 5%)
SK-MEL-28
  GI%: – (GI% < 5%)
SK-MEL-5
  GI%: 62.94%
UACC-257
  GI%: – (GI% < 5%)
UACC-62
  GI%: 34.75%
DU-145
  GI%: – (GI% < 5%)
PC-3
  GI%: 46.62%

## COc1cccc(-c2nc3ccccc3s2)c1OCC(=O)NN=C1C(=O)Nc2ccc([N+](=O)[O-])cc21 [Compound 9j, 2-(2-(Benzo[d]thiazol-2-yl)-6-methoxyphenoxy)-N′-(5-nitro-2-oxoindolin-3-ylidene)acetohydrazide]
K-562
  GI%: – (GI% < 5%)
MOLT-4
  GI%: 9.01%
SR
  GI%: – (GI% < 5%)
COLO 205
  GI%: – (GI% < 5%)
HCC-2998
  GI%: – (GI% < 5%)
HCT-116
  GI%: 7.08%
HCT-15
  GI%: 5.47%
KM12
  GI%: 5.79%
SW-620
  GI%: – (GI% < 5%)
SF-268
  GI%: – (GI% < 5%)
SF-295
  GI%: 11.71%
SF-539
  GI%: – (GI% < 5%)
SNB-19
  GI%: 5.77%
SNB-75
  GI%: – (GI% < 5%)
U251
  GI%: – (GI% < 5%)
LOX IMVI
  GI%: – (GI% < 5%)
M14
  GI%: 8.57%
MALME-3M
  GI%: 12.74%
MDA-MB-435
  GI%: 6.00%
SK-MEL-28
  GI%: – (GI% < 5%)
SK-MEL-5
  GI%: 24.59%
UACC-257
  GI%: 5.08%
UACC-62
  GI%: 11.06%
DU-145
  GI%: 6.78%
PC-3
  GI%: 18.80%

## O=C(COc1ccccc1-c1nc2ccccc2s1)NN=C1C(=O)Nc2ccccc21 [Compound 9a, 2-(2-(Benzo[d]thiazol-2-yl)phenoxy)-N′-(2-oxoindolin-3-ylidene)acetohydrazide]
K-562
  GI%: – (GI% < 5%)
MOLT-4
  GI%: 8.23%
SR
  GI%: – (GI% < 5%)
COLO 205
  GI%: – (GI% < 5%)
HCC-2998
  GI%: – (GI% < 5%)
HCT-116
  GI%: – (GI% < 5%)
HCT-15
  GI%: 8.99%
KM12
  GI%: 6.23%
SW-620
  GI%: – (GI% < 5%)
SF-268
  GI%: 6.56%
SF-295
  GI%: 14.46%
SF-539
  GI%: 5.56%
SNB-19
  GI%: 6.15%
SNB-75
  GI%: – (GI% < 5%)
U251
  GI%: – (GI% < 5%)
LOX IMVI
  GI%: – (GI% < 5%)
M14
  GI%: – (GI% < 5%)
MALME-3M
  GI%: – (GI% < 5%)
MDA-MB-435
  GI%: – (GI% < 5%)
SK-MEL-28
  GI%: – (GI% < 5%)
SK-MEL-5
  GI%: 13.43%
UACC-257
  GI%: 6.77%
UACC-62
  GI%: 13.82%
DU-145
  GI%: 6.07%
PC-3
  GI%: 19.26%

## COc1ccc2c(c1)C(=NNC(=O)COc1ccccc1-c1nc3ccccc3s1)C(=O)N2 [Compound 9c, 2-(2-(Benzo[d]thiazol-2-yl)phenoxy)-N′-(5-methoxy-2-oxoindolin-3-ylidene)acetohydrazide]
K-562
  GI%: 30.54%
MOLT-4
  GI%: 47.19%
SR
  GI%: 20.98%
COLO 205
  GI%: – (GI% < 5%)
HCC-2998
  GI%: – (GI% < 5%)
HCT-116
  GI%: 18.17%
HCT-15
  GI%: 40.05%
KM12
  GI%: 15.67%
SW-620
  GI%: – (GI% < 5%)
SF-268
  GI%: 13.85%
SF-295
  GI%: 20.67%
SF-539
  GI%: 5.44%
SNB-19
  GI%: 7.69%
SNB-75
  GI%: – (GI% < 5%)
U251
  GI%: – (GI% < 5%)
LOX IMVI
  GI%: 9.06%
M14
  GI%: 5.86%
MALME-3M
  GI%: 13.58%
MDA-MB-435
  GI%: 19.69%
SK-MEL-28
  GI%: – (GI% < 5%)
SK-MEL-5
  GI%: 44.97%
UACC-257
  GI%: – (GI% < 5%)
UACC-62
  GI%: 28.02%
DU-145
  GI%: 6.75%
PC-3
  GI%: 43.83%

## COc1ccc2c(c1)C(=NNC(=O)COc1c(OC)cccc1-c1nc3ccccc3s1)C(=O)N2 [Compound 9i, 2-(2-(Benzo[d]thiazol-2-yl)-6-methoxyphenoxy)-N′-(5-methoxy-2-oxoindolin-3-ylidene)acetohydrazide]
K-562
  GI%: 21.95%
MOLT-4
  GI%: 45.30%
SR
  GI%: – (GI% < 5%)
COLO 205
  GI%: – (GI% < 5%)
HCC-2998
  GI%: – (GI% < 5%)
HCT-116
  GI%: 17.55%
HCT-15
  GI%: 9.87%
KM12
  GI%: 8.46%
SW-620
  GI%: – (GI% < 5%)
SF-268
  GI%: – (GI% < 5%)
SF-295
  GI%: 13.86%
SF-539
  GI%: 6.47%
SNB-19
  GI%: 11.58%
SNB-75
  GI%: – (GI% < 5%)
U251
  GI%: – (GI% < 5%)
LOX IMVI
  GI%: – (GI% < 5%)
M14
  GI%: 7.92%
MALME-3M
  GI%: 12.81%
MDA-MB-435
  GI%: – (GI% < 5%)
SK-MEL-28
  GI%: – (GI% < 5%)
SK-MEL-5
  GI%: 51.82%
UACC-257
  GI%: – (GI% < 5%)
UACC-62
  GI%: 25.33%
DU-145
  GI%: – (GI% < 5%)
PC-3
  GI%: 43.62%

## COc1cccc(-c2nc3ccccc3s2)c1OCC(=O)NN=C1C(=O)Nc2ccccc21 [Compound 9g, 2-(2-(Benzo[d]thiazol-2-yl)-6-methoxyphenoxy)-N′-(2-oxoindolin-3-ylidene)acetohydrazide]
K-562
  GI%: 32.23%
MOLT-4
  GI%: 49.06%
SR
  GI%: 18.95%
COLO 205
  GI%: 25.08%
HCC-2998
  GI%: – (GI% < 5%)
HCT-116
  GI%: 20.48%
HCT-15
  GI%: 25.54%
KM12
  GI%: 8.64%
SW-620
  GI%: – (GI% < 5%)
SF-268
  GI%: 5.11%
SF-295
  GI%: 29.36%
SF-539
  GI%: 9.46%
SNB-19
  GI%: 13.10%
SNB-75
  GI%: – (GI% < 5%)
U251
  GI%: 8.36%
LOX IMVI
  GI%: 25.54%
M14
  GI%: – (GI% < 5%)
MALME-3M
  GI%: 13.82%
MDA-MB-435
  GI%: 10.97%
SK-MEL-28
  GI%: – (GI% < 5%)
SK-MEL-5
  GI%: 95.02%
UACC-257
  GI%: – (GI% < 5%)
UACC-62
  GI%: 46.29%
DU-145
  GI%: – (GI% < 5%)
PC-3
  GI%: 44.41%
